Experimental data as given in a melting point compilation (Tetko et al.).

Compound	melting point
Cc1c(C(=O)NN)oc2ccccc12	139 to 141 °C
CON=C(C(=O)N[C@@H]1C(=O)N2C(C(=O)O)=C(CSc3nnnn3C)CS[C@H]12)c1csc(N)n1	159 to 161 °C
CN1CCN(S(=O)(=O)c2cccc(Br)c2)CC1	103 to 105 °C
O=C(O)C1(c2ccc(F)cc2)CCOCC1	156 to 158 °C
FC(F)n1ccnc1COc1ccc(Br)cc1	61 to 63 °C
COc1cc(C=C2CC(C(C)(C)C)Cc3c2nc2ccccc2c3C(=O)O)cc(OC)c1OC (stereo unspecified)	220 to 222 °C
NNc1ccc(-n2cccn2)nn1	194 to 196 °C
Cc1cc(C(=O)O)c(C)n1-c1ccccc1	213 to 215 °C
Oc1ccc(-c2nc(-c3ccccc3)cs2)cc1	148 to 150 °C
NC(=O)c1ccncc1F	126 to 128 °C
Cc1nnc(C2Cc3ccccc3CN2)o1 (stereo unspecified)	65 to 67 °C
O=C(O)CCC(=O)N1CCc2sccc2C1	130 to 132 °C
Cc1cc(C)n2nc(Br)nc2n1	185 to 187 °C
CC(=O)c1ccc(Cl)c(S(=O)(=O)Cl)c1	111 to 113 °C
Sc1nnnn1-c1ccc2c(c1)OCCO2	143 to 145 °C
ClCc1cc2ccccc2s1	49 to 51 °C
N#Cc1ccnc(Cl)c1[N+](=O)[O-]	74 to 76 °C
O=C1C=CC(=O)N1c1cc(Cl)cc(Cl)c1	139 to 141 °C
O=C(O)C(Oc1ccc(F)cc1Br)c1ccccc1 (stereo unspecified)	133 to 135 °C
O=C(Cn1ccnc1)c1cccc(F)c1	113 to 115 °C
c1csc(-c2ncc[nH]2)c1	191 to 193 °C
O=Cc1ccc(N2CCCCC2)s1	73 to 75 °C
CC(=O)Nc1ncccc1N	135 to 137 °C
Cn1cc(CNc2ccccc2C(F)(F)F)cn1	53 to 55 °C

Compound	melting point
CNS(=O)(=O)c1cc(Br)ccc1C	105 to 107 °C
O=C(O)c1ccc(-c2cc(Cl)cc(Cl)c2)s1	190 to 195 °C
CS(=O)c1cccc(N)c1 (stereo unspecified)	110 to 112 °C
NCCNS(=O)(=O)Cc1ccccc1	88 to 90 °C
O=C(O)c1cn(Cc2ccccc2)c2ccccc12	192 to 194 °C
NCc1ccc(N2CCN(c3ncccn3)CC2)c(F)c1	90 to 92 °C
Nc1nnc(Cc2ccc3ccccc3c2)o1	219 to 221 °C
Clc1sc2ccccc2c1Cl	53 to 55 °C
C#CCn1nc(C)c(C)c1C	74 to 76 °C
CCNS(=O)(=O)c1ccc(/C=C/C(=O)O)cc1	248 to 250 °C
O=c1[nH]c2ccc(S(=O)(=O)Cl)cc2[nH]c1=O	304 to 306 °C
Cc1cccc(-n2c(S)nnc2-c2ccccc2)c1	133 to 135 °C
CCc1cc(OCC(=O)O)ccc1Cl	143 to 145 °C
CC(=O)NCc1ccc(C(C)=O)s1	129 to 131 °C
Cn1c(-c2ccccc2)c(C(=O)CC#N)c2ccccc21	155 to 157 °C
CC1CCCCN1c1cc(C(=O)O)ccn1 (stereo unspecified)	164 to 166 °C
CCCCn1nnnc1CCl	< 17 °C
Cc1cc(O)cc(C(C)C)c1	49 to 51 °C
CC(C)Cn1[nH]c(-c2ccccc2)cc1=N	99 to 101 °C
O=S(=O)(Cl)c1ccc(Cl)c2ncccc12	111 to 113 °C
CNc1ncnc2ccsc12	179 to 181 °C
CCOC(=O)c1sc2nc(Cc3ccccn3)[nH]c(=O)c2c1C	231 to 233 °C
O=C(NS(=O)(=O)c1cccs1)c1ccccc1	92 to 94 °C
ClCc1cnc(-c2ccccc2)s1	57 to 59 °C

Compound	melting point
CCC(=O)N1CCc2cc(C(=O)O)ccc21	228 to 230 °C
COC(=O)c1ccc(NS(C)(=O)=O)cc1	147 to 149 °C
Nc1c(Cl)ncnc1NC1CC1	139 to 141 °C
c1nnc(C2CC2)n1C1CC1	74 to 76 °C
COCC(=O)Nc1cccc(N)c1	82 to 84 °C
NS(=O)(=O)c1ccc(SCC(=O)O)cc1	157 to 159 °C
CC(C)(C)OC(=O)N1CCC(O)(C(F)(F)F)C1 (stereo unspecified)	102 to 104 °C
NCc1ccc(-n2cncn2)cc1Cl	111 to 113 °C
O=C(O)Cc1coc(-c2ccc(Cl)cc2)n1	191 to 193 °C
O=C(O)CCc1ccc(-c2ccccc2)o1	118 to 120 °C
N#Cc1cccnc1NCCO	79 to 81 °C
Nc1cc(S(=O)(=O)N2CCOCC2)ccc1N1CCCC1	179 to 181 °C
CC(C)c1cc(=O)oc2cc(O)ccc12	77 to 79 °C
Nc1nc(Cc2ccccc2)cs1	89 to 91 °C
CC(C)(C)OC(=O)N1CCC(C(=O)O)(c2ccccc2)CC1	116 to 118 °C
Cc1ccc(-c2ccc(C=O)o2)cc1	53 to 55 °C
NCC1(O)CCOCC1	65 to 67 °C
O=Cc1nccn1CC(F)(F)F	50 to 52 °C
CC(C)(O)COc1ccc(N)cc1	55 to 57 °C
CN(C)Cc1ccc(-c2ccccc2C#N)cc1	44 to 46 °C
CCOC(=O)c1c(NC(=O)CCl)sc(-c2ccccc2)c1C	106 to 108 °C
CN(C)S(=O)(=O)c1cccc(N=C=S)c1	47 to 49 °C
O=C(O)CCc1ccc(Br)cc1F	97 to 99 °C
